Measured values published in patent US11753407B2, “Compounds for treating spinal muscular atrophy” (PTC Therapeutics, Inc., priority 2012, dated 2023).
One block for each compound: values may come before it.

Columns and labels:
[1] = test system: Smn protein in SMA patient fibroblast cells (GM03813); experiment: Smn protein assay in cultured cells (SMN HTRF); format: cell-based, human; details: SMA patient fibroblast cells, 48 hours; for maximum fold (Fold) increase of Smn protein: 7-point concentration data, fold relative to vehicle control; for EC1.5x for Smn protein expression: 7-point concentration curve, SMN HTRF, concentration producing 1.5 times Smn protein vs DMSO vehicle control
Outline: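 Cells were cultured 72 h, seeded at 5,000/well and dosed with seven concentrations (3.16-fold apart) for 48 h. HTRF on lysates, read at 665 and 620 nm, gave blank-corrected ΔF values relative to DMSO. Potency is reported as EC1.5×, efficacy as maximal fold Smn increase.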

[2] = test system: SMN2 minigene mRNA (SMN2-A minigene) in HEK293H cells; experiment: SMN2 minigene mRNA splicing RT-qPCR assay in cultured cells; format: cell-based, human; details: Homo sapiens, HEK293-H; concentration increasing full length SMN2 mRNA 1.5-fold relative to vehicle-treated cells; HEK293H cells with SMN2-A minigene, 24 hours, 7-point concentration data; read-out: EC1.5x for production of full length SMN2 mRNA
Outline: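 EC1.5× values derive from a 24 h treatment of SMN2-A minigene HEK293H cells and GAPDH-normalized RT-qPCR of exon 7-included minigene mRNA relative to vehicle-treated cells.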

Structure (SMILES): Cc1cn2cc(-c3cc(=O)n4cc(C5=CCN(C(C)C)CC5)ncc4n3)cc2c(C)n1 [Compound 479, 2-(1,3-dimethylpyrrolo[1,2-a]pyrazin-7-yl)-7-[1-(propan-2-yl)-1,2,3,6-tetrahydropyridin-4-yl]-4H-pyrazino[1,2-a]pyrimidin-4-one]
melting point: 220 to 222 °C
maximum fold (Fold) increase of Smn protein [1]: ** (a fold increase between >1.2 and ≤1.35 is indicated by two stars (**))
EC (1.5-fold increase) [2]: < 0.1 µM

Structure (SMILES): Cc1cn2nc(-c3cc(=O)n4cc(C5=CCNCC5)cc(C)c4n3)cc2c(C)n1 [Compound 480, 2-(4,6-dimethylpyrazolo[1,5-a]pyrazin-2-yl)-9-methyl-7-(1,2,3,6-tetrahydropyridin-4-yl)-4H-pyrido[1,2-a]pyrimidin-4-one]
melting point: > 300 °C
EC1.5x for Smn protein expression [1]: **** (an EC1.5x≤0.3 μM is indicated by four stars (****))
maximum fold (Fold) increase of Smn protein [1]: ***** (a fold increase >1.65 is indicated by five stars (*****))
EC (1.5-fold increase) [2]: < 0.1 µM

Structure (SMILES): Cc1cn2nc(-c3cc(=O)n4cc(C5=CCN(C)CC5)ccc4n3)cc2cn1 [Compound 484, 2-(6-methylpyrazolo[1,5-a]pyrazin-2-yl)-7-(1-methyl-1,2,3,6-tetrahydropyridin-4-yl)-4H-pyrido[1,2-a]pyrimidin-4-one]
melting point: 126 to 128 °C
EC1.5x for Smn protein expression [1]: **** (an EC1.5x≤0.3 μM is indicated by four stars (****))
maximum fold (Fold) increase of Smn protein [1]: ***** (a fold increase >1.65 is indicated by five stars (*****))
EC (1.5-fold increase) [2]: < 0.1 µM

Structure (SMILES): Cc1cc2cc(-c3cc(=O)n4cc(N5CCN(C)CC5)ccc4n3)oc2c(C)n1 [Compound 487, 2-(5,7-dimethylfuro[2,3-c]pyridin-2-yl)-7-(4-methylpiperazin-1-yl)-4H-pyrido[1,2-a]pyrimidin-4-one]
melting point: 256 to 258 °C
EC1.5x for Smn protein expression [1]: **** (an EC1.5x≤0.3 μM is indicated by four stars (****))
maximum fold (Fold) increase of Smn protein [1]: **** (a fold increase between >1.5 and ≤1.65 is indicated by four stars (****))
EC (1.5-fold increase) [2]: 0.1 to 0.3 µM

Structure (SMILES): Cc1cc2cc(-c3cc(=O)n4cc(N5CCN[C@@H](C)C5)ccc4n3)oc2c(C)n1 [Compound 488, 2-(5,7-dimethylfuro[2,3-c]pyridin-2-yl)-7-[(3S)-3-methylpiperazin-1-yl]-4H-pyrido[1,2-a]pyrimidin-4-one]
melting point: 202 to 204 °C
EC1.5x for Smn protein expression [1]: **** (an EC1.5x≤0.3 μM is indicated by four stars (****))
maximum fold (Fold) increase of Smn protein [1]: **** (a fold increase between >1.5 and ≤1.65 is indicated by four stars (****))
EC (1.5-fold increase) [2]: < 0.1 µM

Structure (SMILES): CN1CCN(c2ccc3nc(-c4ccc5c(cnn5C)c4)cc(=O)n3c2)CC1 [Compound 489, 2-(1-methyl-1H-indazol-5-yl)-7-(4-methylpiperazin-1-yl)-4H-pyrido[1,2-a]pyrimidin-4-one]
melting point: 194 to 196 °C
EC1.5x for Smn protein expression [1]: ** (an EC1.5× between >1 μM and ≤3 μM is indicated by two stars (**))
maximum fold (Fold) increase of Smn protein [1]: **** (a fold increase between >1.5 and ≤1.65 is indicated by four stars (****))
EC (1.5-fold increase) [2]: 0.1 to 0.3 µM

Structure (SMILES): Cn1ncc2cc(-c3cc(=O)n4cc(N5CCNCC5)ccc4n3)ccc21 [Compound 490, 2-(1-methyl-1H-indazol-5-yl)-7-(piperazin-1-yl)-4H-pyrido[1,2-a]pyrimidin-4-one]
melting point: 206 to 208 °C
EC1.5x for Smn protein expression [1]: *** (an EC1.5× between >0.3 μM and ≤1 μM is indicated by three stars (***))
maximum fold (Fold) increase of Smn protein [1]: ***** (a fold increase >1.65 is indicated by five stars (*****))
EC (1.5-fold increase) [2]: < 0.1 µM

Structure (SMILES): CN(C)C1CCN(c2ccc3nc(-c4ccc5c(cnn5C)c4)cc(=O)n3c2)CC1 [Compound 491, 7-[4-(dimethylamino)piperidin-1-yl]-2-(1-methyl-1H-indazol-5-yl)-4H-pyrido[1,2-a]pyrimidin-4-one]
melting point: 209 to 212 °C
EC1.5x for Smn protein expression [1]: ** (an EC1.5× between >1 μM and ≤3 μM is indicated by two stars (**))
maximum fold (Fold) increase of Smn protein [1]: **** (a fold increase between >1.5 and ≤1.65 is indicated by four stars (****))
EC (1.5-fold increase) [2]: 0.3 to 1 µM

Structure (SMILES): CCN1CC=C(c2ccc3nc(-c4ccc5nc(C)oc5c4)cc(=O)n3n2)CC1 [Compound 493, 7-(1-ethyl-1,2,3,6-tetrahydropyridin-4-yl)-2-(2-methyl-1,3-benzoxazol-6-yl)-4H-pyrimido[1,2-b]pyridazin-4-one]
melting point: 205 to 207 °C
EC1.5x for Smn protein expression [1]: *** (an EC1.5× between >0.3 μM and ≤1 μM is indicated by three stars (***))
maximum fold (Fold) increase of Smn protein [1]: **** (a fold increase between >1.5 and ≤1.65 is indicated by four stars (****))
EC (1.5-fold increase) [2]: < 0.1 µM

Structure (SMILES): CCN1CCN(c2ccc3nc(-c4cc(Cl)c5nc(C)cn5c4)cc(=O)n3c2)CC1 [Compound 494, 2-(8-chloro-2-methylimidazo[1,2-a]pyridin-6-yl)-7-(4-ethylpiperazin-1-yl)-4H-pyrido[1,2-a]pyrimidin-4-one]
melting point: 264 to 268 °C
EC1.5x for Smn protein expression [1]: **** (an EC1.5x≤0.3 μM is indicated by four stars (****))
maximum fold (Fold) increase of Smn protein [1]: **** (a fold increase between >1.5 and ≤1.65 is indicated by four stars (****))
EC (1.5-fold increase) [2]: < 0.1 µM

Structure (SMILES): CCN1CCN(c2ccc3nc(-c4cc(Cl)c5nc(C)cn5c4)cc(=O)n3c2)C[C@H]1C [Compound 495, 2-(8-chloro-2-methylimidazo[1,2-a]pyridin-6-yl)-7-[(3R)-4-ethyl-3-methylpiperazin-1-yl]-4H-pyrido[1,2-a]pyrimidin-4-one]
melting point: 239 to 245 °C
EC1.5x for Smn protein expression [1]: **** (an EC1.5x≤0.3 μM is indicated by four stars (****))
maximum fold (Fold) increase of Smn protein [1]: ***** (a fold increase >1.65 is indicated by five stars (*****))
EC (1.5-fold increase) [2]: < 0.1 µM

Continued, in another order:

melting point: 234 to 245 °C
Structure (SMILES): CCN1CCN(c2ccc3nc(-c4cc(Cl)c5nc(C)cn5c4)cc(=O)n3c2)C[C@@H]1C [Compound 496, 2-(8-chloro-2-methylimidazo[1,2-a]pyridin-6-yl)-7-[(3S)-4-ethyl-3-methylpiperazin-1-yl]-4H-pyrido[1,2-a]pyrimidin-4-one]
EC1.5x for Smn protein expression [1]: **** (an EC1.5x≤0.3 μM is indicated by four stars (****))
maximum fold (Fold) increase of Smn protein [1]: ***** (a fold increase >1.65 is indicated by five stars (*****))
EC (1.5-fold increase) [2]: < 0.1 µM

melting point: 278 to 281 °C
Structure (SMILES): Cc1cn2cc(-c3cc(=O)n4cc(N5CCN(C(C)C)[C@H](C)C5)ccc4n3)cc(Cl)c2n1 [Compound 497, 2-(8-chloro-2-methylimidazo[1,2-a]pyridin-6-yl)-7-[(3R)-3-methyl-4-(propan-2-yl)piperazin-1-yl]-4H-pyrido[1,2-a]pyrimidin-4-one]
EC1.5x for Smn protein expression [1]: *** (an EC1.5× between >0.3 μM and ≤1 μM is indicated by three stars (***))
maximum fold (Fold) increase of Smn protein [1]: **** (a fold increase between >1.5 and ≤1.65 is indicated by four stars (****))
EC (1.5-fold increase) [2]: < 0.1 µM

melting point: 264 to 270 °C
Structure (SMILES): Cc1cn2cc(-c3cc(=O)n4cc(N5CCN(C(C)C)[C@@H](C)C5)ccc4n3)cc(Cl)c2n1 [Compound 498, 2-(8-chloro-2-methylimidazo[1,2-a]pyridin-6-yl)-7-[(3S)-3-methyl-4-(propan-2-yl)piperazin-1-yl]-4H-pyrido[1,2-a]pyrimidin-4-one]
EC1.5x for Smn protein expression [1]: **** (an EC1.5x≤0.3 μM is indicated by four stars (****))
maximum fold (Fold) increase of Smn protein [1]: ***** (a fold increase >1.65 is indicated by five stars (*****))
EC (1.5-fold increase) [2]: < 0.1 µM

melting point: 126 to 128 °C
Structure (SMILES): Cc1nc2ccc(-c3cc(=O)n4nc(C5CCNCC5)ccc4n3)cc2o1 [Compound 499, 2-(2-methyl-1,3-benzoxazol-6-yl)-7-(piperidin-4-yl)-4H-pyrimido[1,2-b]pyridazin-4-one]
EC1.5x for Smn protein expression [1]: **** (an EC1.5x≤0.3 μM is indicated by four stars (****))
maximum fold (Fold) increase of Smn protein [1]: ***** (a fold increase >1.65 is indicated by five stars (*****))
EC (1.5-fold increase) [2]: < 0.1 µM

melting point: 272 to 275 °C
Structure (SMILES): Cc1nc2ccc(-c3cc(=O)n4nc(C5CCN(C)CC5)ccc4n3)cc2o1 [Compound 500, 2-(2-methyl-1,3-benzoxazol-6-yl)-7-(1-methylpiperidin-4-yl)-4H-pyrimido[1,2-b]pyridazin-4-one]
EC1.5x for Smn protein expression [1]: *** (an EC1.5× between >0.3 μM and ≤1 μM is indicated by three stars (***))
maximum fold (Fold) increase of Smn protein [1]: ***** (a fold increase >1.65 is indicated by five stars (*****))
EC (1.5-fold increase) [2]: 0.1 to 0.3 µM

melting point: 284 to 286 °C
Structure (SMILES): CCN1CCC(c2ccc3nc(-c4ccc5nc(C)oc5c4)cc(=O)n3n2)CC1 [Compound 501, 7-(1-ethylpiperidin-4-yl)-2-(2-methyl-1,3-benzoxazol-6-yl)-4H-pyrimido[1,2-b]pyridazin-4-one]
EC1.5x for Smn protein expression [1]: *** (an EC1.5× between >0.3 μM and ≤1 μM is indicated by three stars (***))
maximum fold (Fold) increase of Smn protein [1]: ***** (a fold increase >1.65 is indicated by five stars (*****))
EC (1.5-fold increase) [2]: 0.1 to 0.3 µM

melting point: 257 to 259 °C
Structure (SMILES): Cc1cn2nc(-c3cc(=O)n4cc(C5CCN(C)CC5)ncc4n3)cc2c(C)n1 [Compound 503, 2-(4,6-dimethylpyrazolo[1,5-a]pyrazin-2-yl)-7-(1-methylpiperidin-4-yl)-4H-pyrazino[1,2-a]pyrimidin-4-one]
EC1.5x for Smn protein expression [1]: **** (an EC1.5x≤0.3 μM is indicated by four stars (****))
maximum fold (Fold) increase of Smn protein [1]: ***** (a fold increase >1.65 is indicated by five stars (*****))
EC (1.5-fold increase) [2]: < 0.1 µM
